According to patent publication US7018631B1, “Compositions and methods for sensitizing and inhibiting growth of human tumor cells” (St. Jude Children's Research Hospital, priority 1998, dated 2006):
Entries after “also recorded” stand apart in the source; their conditions may differ. Where two headings read alike, the source gives them in different places.

Experiments:
U-373 glioma cells = test: Sensitization of U-373 glioma cells expressing CE to APC; type: cell-based, human; conditions: 2 h exposure
Description: FIG. 7 is a linegraph showing a comparison of the sensitization, depicted as % survival on the Y-axis, of U-373 glioma cells exposed to APC, depicted as log[APC] at concentrations from 10^−8 to 10^−5 M on the X-axis, from in situ expression of rabbit liver CE (filled squares) and human alveolar macrophage CE (filled circles). Cells were exposed for 2 hours to APC.
(§1) No known human enzyme activates APC. […] Thus, the combination of APC and sensitization of selected tumor cells with rabbit liver CE as described above can be used to produce a tumor-specific cell death while greatly minimizing the toxic side effects associated with administration of chemotherapy.

rabbit liver CE [1] = target: T1, rabbit liver CE (Oryctolagus cuniculus, UniProt P12337); test: In vitro conversion of APC to SN-38 by rabbit liver CE; type: biochemical; conditions: FIG. 6
T1 sequence (P12337 19-565): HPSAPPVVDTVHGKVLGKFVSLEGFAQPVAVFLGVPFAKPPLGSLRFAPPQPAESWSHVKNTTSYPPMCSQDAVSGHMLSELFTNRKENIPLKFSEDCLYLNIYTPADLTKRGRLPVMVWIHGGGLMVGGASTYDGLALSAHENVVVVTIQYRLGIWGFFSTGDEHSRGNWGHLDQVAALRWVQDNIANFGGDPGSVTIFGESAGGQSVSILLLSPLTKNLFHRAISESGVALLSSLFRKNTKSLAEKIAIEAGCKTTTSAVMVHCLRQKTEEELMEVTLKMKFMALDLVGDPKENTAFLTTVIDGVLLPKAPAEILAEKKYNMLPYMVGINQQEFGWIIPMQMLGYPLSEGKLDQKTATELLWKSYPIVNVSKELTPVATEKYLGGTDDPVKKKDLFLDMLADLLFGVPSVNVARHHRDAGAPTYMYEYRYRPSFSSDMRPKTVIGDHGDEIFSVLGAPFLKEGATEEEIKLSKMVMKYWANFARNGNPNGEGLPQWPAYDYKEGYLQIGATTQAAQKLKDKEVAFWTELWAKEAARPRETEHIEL
Description: FIG. 6 is a linegraph showing the conversion of APC, depicted on the X-axis at nanomolar concentrations, to SN-38, depicted on the Y-axis at nanomolar concentrations, in vitro by the activity of rabbit liver CE given at doses of 0 (filled cross), 10 (filled hexagon), 25 (filled triangle), 50 (filled circle) or 100 (filled square) units. Data presented represent the mean response at each dose level.
as §1

Rh30 cells = test: Growth inhibition of Rh30 cells by CPT-11 pre-incubated with rabbit liver CE; type: cell-based, human; conditions: 1 to 5 units of CE inactivated by heating; 1 h exposure
Description: Another aspect of the present invention relates to the ability of compositions of the present invention comprising a polynucleotide encoding a carboxylesterase and a disease-specific responsive promoter of selected tumor cells to sensitize the tumor cells to a chemotherapeutic prodrug. The ability of the combination of a rabbit CE of the present invention and CPT-11 to sensitize human tumor cells to CPT-11 was examined. Experiments were first performed to confirm that the metabolite produced by the activity of a CE of the present invention is biologically active in vitro. Rh30 cells were then exposed to the products of each reaction for one hour and the percentage of growth inhibition was determined.
Each reaction mixture was then filter-sterilized and Rh30 cells were exposed to drug for one hour, at which time the medium was replaced with drug-free medium containing serum. […] Cells were allowed to grow for 3 cell doubling times and cell numbers were determined.

[2] = test system: U373 glioblastoma xenografts; test: U373 glioblastoma xenografts in SCID mice treated with CPT-11; type: in vivo; conditions: 7.5 mg/kg/day, three cycles
Description: The tumor growth rate is depicted on the Y-axis in terms of tumor volume and is plotted as a function of time in weeks (X-axis). Open circles depict the tumor volume of untreated U373 xenografts expressing rabbit CE. Filled triangles depict the response of control xenografts (no rabbit CE) treated with CPT-11. Filled squares depict the response of cells expressing rabbit CE and treated with CPT-11. […] Each point represents the mean of 14 tumors in 7 individual mice.
Similar studies were performed employing U373 glioblastoma cells transfected with the pIRESneo plasmid or with pIRESneo containing the cDNA for rabbit liver CE and selected with G418. Expression of CE in the tumor cells was confirmed by biochemical assay using the substrate o-NPA. Cells were injected subcutaneously into the flanks of the SCID mice.

rabbit liver CE [3] = target: T1, rabbit liver CE; test: Metabolism of CPT-11 by commercially available rabbit liver CE, rapid fluorometric assay; type: biochemical; conditions: partially purified commercial rabbit liver CE
Description: (§2) The commercially available pig CE contained several proteins. […] Therefore, the rabbit proteins were chosen for further study.

[4] = test system: Rh30 rhabdosarcoma xenografts; test: Rh30 and Rh30pIRESrabbit xenografts in SCID mice treated with CPT-11; type: in vivo; conditions: for tumor response: 2.5 mg CPT-11/kg/day, three cycles
Description: The tumor growth rate is depicted on the Y-axis of each graph in terms of tumor volume and is plotted as a function of time in weeks (X-axis).
In this preclinical model, expression of the transfected cDNA for rabbit CE was maintained for at least 12 weeks.
Experiments were performed in this model to compare the responses of mice bearing human Rh30 and Rh30pIRESrabbit xenografts. Rh30 rhabdosarcoma xenografts were transfected with pIRESneo plasmid containing the cDNA for rabbit liver CE and selected with G418. Expression of CE was confirmed by biochemical assay using the CE substrate o-NPA and maintained for at least 12 weeks. Two groups of SCID mice were then injected with the transfected Rh30pIRESrabbit cells subcutaneously into the flanks. A third group of control mice was injected in identical fashion with Rh30 cells not transfected with the plasmid.

pig liver CE = test: Metabolism of CPT-11 by commercially available pig liver CE, rapid fluorometric assay; type: biochemical; conditions: partially purified commercial pig liver CE
Description: as §2

[5] = test system: Rh30 rhabdomyosarcoma cells; test: Growth inhibition by CPT-11 of Rh30 cells stably transfected with pIRES or rabbit CE cDNA; type: cell-based; conditions: Homo sapiens, Rh30, 2 h, 2 h exposure
Description: The in vitro activity of rabbit liver CE was examined in tumor cell lines. […] Optimized conditions for electroporation were achieved using 180 V and 960 uF. […] Cells were grown for a minimum of 10 days before use in growth inhibition experiments. […] Drug was added to tissue culture medium of each of the stably transfected cell lines for two hours, after which time the medium was replaced with drug-free medium. Cells were then allowed to grow for 3 cell doublings as before.

[6] = test system: CEs purified from human tissues; conditions: human CE; cited from earlier work
human NB-1691 xenografts = test: NB-1691 xenograft model for MRD; type: in vivo, mice; conditions: 10 mg/kg CPT-11 daily for 5 days on two consecutive weeks
Description: However, within 4–6 weeks, tumors are palpable in the exact position where the original xenograft was implanted. Since these tumors arise from cells that survived the initial cycle of chemotherapy, this model therefore mimics results seen in patients following surgical resection of the primary tumor and subsequent regrowth at the same site.

Rh18 RMS xenografts = conditions: cited from earlier work
[7] = patients; cited from earlier work
topoisomerase I = target: T2, topoisomerase I (Homo sapiens, UniProt P11387); conditions: cited from earlier work
T2 sequence (P11387 1-765): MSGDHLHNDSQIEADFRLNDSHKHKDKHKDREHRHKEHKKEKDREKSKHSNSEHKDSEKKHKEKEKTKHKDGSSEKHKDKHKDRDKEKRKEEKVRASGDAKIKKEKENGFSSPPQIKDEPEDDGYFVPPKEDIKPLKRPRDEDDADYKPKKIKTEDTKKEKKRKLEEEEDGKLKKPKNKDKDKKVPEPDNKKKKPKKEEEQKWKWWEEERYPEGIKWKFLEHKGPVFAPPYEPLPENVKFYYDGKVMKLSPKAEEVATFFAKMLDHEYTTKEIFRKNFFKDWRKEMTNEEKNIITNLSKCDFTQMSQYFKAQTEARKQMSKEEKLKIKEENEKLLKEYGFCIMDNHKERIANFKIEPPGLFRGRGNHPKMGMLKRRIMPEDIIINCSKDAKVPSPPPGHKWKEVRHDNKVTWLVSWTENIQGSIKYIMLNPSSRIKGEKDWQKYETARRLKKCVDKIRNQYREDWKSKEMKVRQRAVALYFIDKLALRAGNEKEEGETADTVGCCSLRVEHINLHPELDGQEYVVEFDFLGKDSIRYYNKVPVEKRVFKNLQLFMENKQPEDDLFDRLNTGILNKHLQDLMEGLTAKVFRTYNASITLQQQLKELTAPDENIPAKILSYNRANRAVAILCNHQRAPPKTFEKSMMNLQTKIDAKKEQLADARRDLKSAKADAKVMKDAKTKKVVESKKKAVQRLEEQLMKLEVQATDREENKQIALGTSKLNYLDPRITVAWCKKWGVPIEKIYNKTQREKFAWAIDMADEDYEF

[8] = tumors not expressing CE (Rh30)

In the case of `CCc1c2c(nc3ccc(OC(=O)N4CCC(NCCCCC(=O)O)CC4)cc13)-c1cc3c(c(=O)n1C2)COC(=O)[C@]3(O)CC` [APC], the “sensitization to growth inhibitory effects of APC” value (U-373 glioma cells; U-373 cells expressing human alveolar macrophage CE) is reported as “not”, the “sensitization to growth inhibitory effects of APC” value (U-373 glioma cells; U-373 cells expressing rabbit liver CE) is reported as “sensitized” and the “conversion of APC to SN-38” value (rabbit liver CE [1]) is reported as “converted to SN-38 in a concentration-dependent manner”.
For `CCc1c2c(nc3ccc(OC(=O)N4CCC(N5CCCCC5)CC4)cc13)-c1cc3c(c(=O)n1C2)COC(=O)[C@]3(O)CC` [CPT-11, 7-ethyl-10-[4-(1-piperidino)-1-piperidino]carbonyloxycamptothecin], the “inhibition of cell growth” value (Rh30 cells) was “no inhibition of cell growth”, the tumor response ([2]; xenografts from cells transfected with control plasmid (no rabbit CE)) was “stable disease but no significant regression; also recorded: stable disease with no significant regression” and the tumor response ([2]; xenografts from cells transfected with plasmid encoding rabbit CE) was “tumor regression was seen only in treated cells expressing rabbit CE; also recorded: regressed completely”. The “metabolism of CPT-11” value (rabbit liver CE [3]) was “metabolized CPT-11 efficiently”, the tumor response ([4]; tumors expressing rabbit CE (Rh30pIRESrabbit), 5 days/week for 2 weeks, 12 weeks) was “complete tumor regression; also recorded: regressed completely and did not regrow” and the “time to regrowth after CPT-11 treatment stopped” value [4, 8] was “within one week”. For the same molecule, the tumor response [4, 8] was “initial regression but regrowth; also recorded: regressed only transiently”, the “metabolism of CPT-11” value (pig liver CE) was “metabolized CPT-11 efficiently” and the IC50 ([5]; read-out: IC50 of CPT-11, Rh30pIRES cells (no CE cDNA)) was 4330 nM. For the same molecule, the IC50 ([5]; read-out: IC50 of CPT-11, Rh30pIRESrabbit cells (rabbit CE cDNA)) was 576 nM, the “prodrug converted to active drug SN-38” value [6] was “less than 5%” and the “time until tumors are palpable again at the original site” value (human NB-1691 xenografts) was 4–6 weeks. For the same molecule, the tumor response (human NB-1691 xenografts) was “complete regression”, the tumor response (Rh18 RMS xenografts; 10 mg/kg/day, same schedule) was “only partial tumor regression” and the tumor response (Rh18 RMS xenografts; 20 mg of CPT-11/kg/day daily for 5 days for two weeks) was “complete regressions”. The dose-limiting toxicities [7] was “myelosuppression and secretory diarrhea”.
In the case of `CCc1c2c(nc3ccc(O)cc13)-c1cc3c(c(=O)n1C2)COC(=O)[C@]3(O)CC` [SN-38, 7-ethyl-10-hydroxy-camptothecin], the “inhibition of topoisomerase I” value (topoisomerase I) is given as “potent inhibitor”.
